These results are taken from ChEMBL document CHEMBL1138973, “Opiate receptor binding properties of morphine-, dihydromorphine-, and codeine 6-O-sulfate ester congeners” (Bioorg Med Chem Lett, 2006).

The target of data set [1] is Kappa-type opioid receptor (Cavia porcellus, UniProt P41144). The experiment in a line: Displacement of radiolabeled U69593 from kappa1 opioid receptor in Hartley guinea pig brain.
For a further data set, the target named is Mu-type opioid receptor (Cavia porcellus, UniProt P97266). The experiment in a line: Displacement of radiolabeled DAMGO from mu opioid receptor in Hartley guinea pig brain.
A short description of data set [2]: Plasma half life in rat. The data set is classed as ADME, organism-based.

A value given as a limit tells only on which side of the number the result lay.

Mu-type opioid receptor, sequence (P97266 whole entry): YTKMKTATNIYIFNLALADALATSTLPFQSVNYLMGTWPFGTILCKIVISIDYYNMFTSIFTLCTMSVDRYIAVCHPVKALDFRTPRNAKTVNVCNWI
Kappa-type opioid receptor, sequence (P41144 whole entry): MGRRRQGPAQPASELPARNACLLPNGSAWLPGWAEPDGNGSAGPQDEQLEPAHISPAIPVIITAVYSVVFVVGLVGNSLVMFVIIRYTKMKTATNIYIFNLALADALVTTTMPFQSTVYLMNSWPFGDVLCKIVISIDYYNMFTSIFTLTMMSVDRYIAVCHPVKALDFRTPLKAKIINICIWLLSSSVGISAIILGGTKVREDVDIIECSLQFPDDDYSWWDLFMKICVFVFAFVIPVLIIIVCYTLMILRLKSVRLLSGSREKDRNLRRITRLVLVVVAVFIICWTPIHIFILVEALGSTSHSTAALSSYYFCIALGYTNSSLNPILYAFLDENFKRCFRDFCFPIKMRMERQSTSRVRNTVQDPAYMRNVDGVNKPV

Usually Ki stands for the dissociation constant of the complex between target and ligand, obtained from inhibition or displacement. For the compound `CN1CC[C@]23c4c5ccc(OS(=O)(=O)O)c4O[C@H]2[C@@H](O)C=C[C@H]3[C@H]1C5`, the figures for the Ki (in data set [1]; on Mu-type opioid receptor) were > 10 µM and 0.101 µM, respectively. The like results for `COc1ccc2c3c1O[C@H]1[C@@H](OS(=O)(=O)O)CC[C@H]4[C@@H](C2)N(C)CC[C@@]341` were, in that order, > 10 µM and 0.196 µM. For `COc1ccc2c3c1O[C@H]1[C@@H](OS(=O)(=O)O)C=C[C@H]4[C@@H](C2)N(C)CC[C@@]341`, in that order: > 10 µM and 0.0387 µM. For the compound `CN1CC[C@]23c4c5ccc(O)c4O[C@H]2[C@@H](OS(=O)(=O)O)C=C[C@H]3[C@H]1C5`, the Ki at Mu-type opioid receptor came to 0.0009 µM. As to `CC1(C)SSC(C)(C)[C@@H](NC(=O)[C@@H](N)Cc2ccc(O)cc2)C(=O)NCC(=O)N[C@@H](Cc2ccc(Cl)cc2)C(=O)N[C@H]1C(=O)O`, the Ki in data set [1] is > 10 µM. For `CN1CC[C@]23c4c5ccc(OC(=O)c6ccccc6)c4O[C@H]2[C@@H](OS(=O)(=O)O)C=C[C@H]3[C@H]1C5`, the Ki in data set [1] is > 10 µM; at Mu-type opioid receptor, 0.0369 µM. The like results for `C[N+]1(C)CC[C@]23c4c5ccc(OC(=O)c6ccccc6)c4O[C@H]2[C@@H](OS(=O)(=O)[O-])C=C[C@H]3[C@H]1C5` were, in that order, > 10 µM and 0.444 µM.

In the case of `CC(C)C(=O)Oc1ccc2c3c1O[C@H]1[C@@H](OS(=O)(=O)O)C=C[C@H]4[C@@H](C2)N(C)CC[C@@]341`, the affinity at Mu-type opioid receptor corresponds to a Ki of 0.0198 µM. On the same count and under the same terms, next, `CN1CC[C@]23c4c5ccc(OC(=O)C(C)(C)C)c4O[C@H]2[C@@H](OS(=O)(=O)O)C=C[C@H]3[C@H]1C5`: 0.0007 µM. As for `CN1CC[C@]23c4c5ccc(OC(=O)c6ccccc6)c4O[C@H]2[C@@H](OS(=O)(=O)O)CC[C@H]3[C@H]1C5`, the figures for the Ki (in data set [1]; at Mu-type opioid receptor) were > 10 µM and 0.0618 µM, respectively.

The term half-life denotes how long it takes for the measured level to halve. The low end stands for fast loss, the high end for slow loss. Regarding `CC(=O)Oc1ccc2c3c1O[C@H]1[C@@H](OS(=O)(=O)O)C=C[C@H]4[C@@H](C2)N(C)CC[C@@]341`, in data set [2], the half-life is > 1 h. In addition, the affinity at Mu-type opioid receptor, expressed as Ki, was 0.0008 µM. With `C=CCN1CCC23c4c5ccc(O)c4O[C@@H]2/C(=N/NC(=O)c2ccccc2)CCC3(O)C1C5` (some centres undefined), the Ki turned out to be 0.0004 µM in data set [1] and 0.0002 µM on Mu-type opioid receptor. As to `CC(=O)Oc1ccc2c3c1O[C@H]1[C@@H](OS(=O)(=O)[O-])C=C[C@H]4[C@@H](C2)[N+](C)(C)CC[C@@]341`, the values for the Ki (in data set [1]; on Mu-type opioid receptor) were > 10 µM and 0.0342 µM, respectively. Besides, in data set [2], the half-life was > 1 h. `CCC(=O)Oc1ccc2c3c1O[C@H]1[C@@H](OS(=O)(=O)O)C=C[C@H]4[C@@H](C2)N(C)CC[C@@]341` gave an inhibition constant (Ki) on Mu-type opioid receptor of 0.0006 µM. `CN1CC[C@]23c4c5ccc(O)c4O[C@H]2[C@@H](OS(=O)(=O)O)CC[C@H]3[C@H]1C5`: the inhibition constant (Ki) in data set [1] came out at 3.13 µM; on Mu-type opioid receptor, 0.0015 µM. As to `CC(=O)Oc1ccc2c3c1O[C@H]1[C@@H](OS(=O)(=O)O)CC[C@H]4[C@@H](C2)N(C)CC[C@@]341`, the Ki in data set [1] is > 10 µM; at Mu-type opioid receptor, 0.0137 µM. In data set [2], the half-life was > 1 h.
